Reference: US9951046B2, “TRPA1 modulators” (Algomedix, Inc., priority 2014, dated 2018)

Biological target: T1, human TRPA1 (Homo sapiens, UniProt O75762)
T1 construct: expressed in transfected cells
Assay: Cell-based functional intracellular calcium ([Ca2+]i) assay, Fluo-4/Fluo-8, FlexStation, challenge with reference TRPA1 agonist (FFA, AITC or 4-HNE)
Conditions: not given
Description: A stable HEK293 cell line that expresses human TRPA1 in an inducible manner was employed in this assay. […] The expression of TRPA1 was induced by including 1 μg/ml doxycycline in the culture medium. For the induced cells, ruthenium red (5 μM) was also added to minimize the constitutive TRPA1 channel activity and cells were used 14-18 hrs after induction. To measure [Ca^2+]i changes, cells were seeded in wells of 96-well plates at ˜100,000 cells/well and grown for 14-18 hrs to reach confluency. To prevent cell loss from subsequent washing, the wells were treated with 20 μg/ml polyornithine (MW>30,000, Sigma, St Louis, Mo.) for >15 min and rinsed once with Hank's balanced salt solution without Mg^2+ and Ca^2+. […] In some experiments, Fluo-8-AM was used instead of Fluo-4-AM as the calcium-sensitive fluorescent probe. Probenecid (2 mM) was included in all solutions to prevent the leakage of Fluo-4 or Fluo-8 from the cells. At the end of the incubation, cells were washed three times with ECS and placed in 80 μL of the same solution. Fluorescence changes were measured using a fluid handling integrated fluorescence plate reader, FlexStation (Molecular Devices, Sunnyvale, Calif.). Stock solutions of test compounds were initially solubilized in 100% DMSO and then serially diluted to achieve the desired final concentration. […] Drugs were diluted into ECS at 2× or 3× the desired final concentrations and delivered to the sample plate by an integrated robotic 8-channel pipettor at preprogrammed time points. […] Experiments were performed at 20-25° C. For certain experiments, 0.1% BSA was included with the cells and test compounds.
The kinetic data obtained at each test concentration of drug represents a series of fluorescent intensities as a function of time.
Using a sequential addition protocol, test compounds were initially applied to the cells loaded with Fluo-4 or Fluo-8 and fluorescence changes in each well monitored for 2.5 min. The plate was read again in a kinetic mode after a 15-30 min incubation with the test compounds after obtaining baseline values (about 30 s) and subsequent addition of challenge with a reference TRPA1 agonist. Reference TRPA1 agonists in testing each compound included at least one of flufenamic acid (FFA), allyl isothiocyanate (AITC) and 4-hydroxynonenal (4-HNE).
Antagonist activity can be expressed in terms of IC50 with respect to TRPA1 and agonist activity can be expressed in terms of EC50 with respect to TRPA1.

T1 sequence (O75762 whole entry): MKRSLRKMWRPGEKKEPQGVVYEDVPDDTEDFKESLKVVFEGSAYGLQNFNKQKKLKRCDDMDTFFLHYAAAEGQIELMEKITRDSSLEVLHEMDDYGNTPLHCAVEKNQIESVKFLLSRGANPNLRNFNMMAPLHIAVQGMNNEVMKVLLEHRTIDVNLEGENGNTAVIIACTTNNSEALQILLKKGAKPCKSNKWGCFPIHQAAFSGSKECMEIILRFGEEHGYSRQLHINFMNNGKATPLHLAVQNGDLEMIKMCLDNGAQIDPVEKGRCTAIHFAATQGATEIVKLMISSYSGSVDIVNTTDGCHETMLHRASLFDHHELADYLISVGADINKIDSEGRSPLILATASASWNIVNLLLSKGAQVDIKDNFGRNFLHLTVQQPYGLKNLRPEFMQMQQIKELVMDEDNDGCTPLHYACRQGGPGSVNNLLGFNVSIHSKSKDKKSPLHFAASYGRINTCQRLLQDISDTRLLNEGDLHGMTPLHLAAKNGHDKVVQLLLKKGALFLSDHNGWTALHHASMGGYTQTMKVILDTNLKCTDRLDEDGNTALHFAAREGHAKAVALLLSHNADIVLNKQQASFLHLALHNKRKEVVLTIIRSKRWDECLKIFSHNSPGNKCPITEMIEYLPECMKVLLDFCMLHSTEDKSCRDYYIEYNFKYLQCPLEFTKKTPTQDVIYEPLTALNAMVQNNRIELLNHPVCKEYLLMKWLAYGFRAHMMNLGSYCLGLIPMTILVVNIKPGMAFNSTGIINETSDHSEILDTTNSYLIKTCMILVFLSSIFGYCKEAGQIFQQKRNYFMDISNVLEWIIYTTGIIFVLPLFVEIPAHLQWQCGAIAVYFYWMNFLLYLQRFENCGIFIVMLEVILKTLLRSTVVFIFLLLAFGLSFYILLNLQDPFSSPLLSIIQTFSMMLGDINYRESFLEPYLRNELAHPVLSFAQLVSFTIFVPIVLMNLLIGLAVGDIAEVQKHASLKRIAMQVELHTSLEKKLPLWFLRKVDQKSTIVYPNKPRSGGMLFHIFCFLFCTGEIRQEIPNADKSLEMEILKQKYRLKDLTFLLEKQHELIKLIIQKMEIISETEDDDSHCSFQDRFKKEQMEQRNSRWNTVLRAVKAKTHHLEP

O=C(c1cc(-c2ccncc2)n(-c2ccc(F)c(F)c2)n1)N1CCC2(CC1)OCCO2 [Compound 151] and O=C(c1cc(-c2ccncc2)n(-c2ccc(F)c(F)c2)n1)N1CCC(N2C(=O)Cc3ccccc32)CC1 [Compound 76] cannot be ordered by IC50: over 25 µM for the first, over 25 µM for the second.

Work on O=C(c1cc(-c2cccnc2)n(-c2ccc(C(F)(F)F)c(F)c2)n1)N1CCN2C(=O)OC3(CC3)[C@@H]2C1 [Compound 192] yielded an IC50 of 0.001 to 5 µM.

Same assay, conditions: HEK293 cells expressing human TRPA1; IC50 class after addition of reference TRPA1 agonist (FFA, AITC or 4-HNE); read-out: human TRPA1-HEK Activity

O=C(c1cc(-c2cccnc2)n(-c2ccc(C(F)(F)F)c(F)c2)n1)N1CCC2(CC1)C(=O)NCN2c1ccc(I)cc1 [Compound 183] and O=C(c1cc(-c2cccnc2)n(-c2ccc(C(F)(F)F)c(F)c2)n1)N1CCC2(CC1)C(=O)NCN2c1ccc(Br)cc1 [Compound 184] cannot be ordered by IC50: over 25 µM for the first, over 25 µM for the second.

CN1C(=O)COc2cc(NC(=O)c3cc(-c4ccncc4)n(-c4cnccn4)n3)ccc21 [Compound 131] and O=C(Nc1ccc2c(c1)COC2=O)c1cc(-c2ccncc2)n(-c2cnccn2)n1 [Compound 134] cannot be ordered by IC50: over 25 µM for the first, over 25 µM for the second.

O=C(c1cc(-c2ccncc2)n(-c2ccccc2)n1)N1CC2(CCCC2)C1 [Compound 6] and O=C(c1cc(-c2ccncc2)n(-c2ccccc2)n1)N1CCC2(CCCC2)CC1 [Compound 4] cannot be ordered by IC50: over 25 µM for the first, over 25 µM for the second.

First: O=C(c1cc(-c2cccnc2)n(-c2cc(F)c(F)c(F)c2)n1)N1C2CCC1CC(n1c(=O)[nH]c3ccc(F)c(F)c31)C2 (stereo not drawn) [Compound 250]
Second: Cc1c(F)ccc2[nH]c(=O)n(C3CCN(C(=O)c4cc(-c5cccnc5)n(-c5cc(F)c(F)c(F)c5)n4)CC3)c12 [Compound 202]
The IC50 of the first is higher: over 25 µM for the first, 0.001 to 5 µM for the second. The second is the more potent here.

O=C(c1cc(-c2ccncc2)n(-c2ccc(C(F)(F)F)cc2)n1)N1CCC2(CC1)C(=O)NCN2c1ccccc1 [Compound 143] and O=C(c1cc(-c2ccncc2)n(-c2ccc(C(F)(F)F)c(F)c2)n1)N1CCC2(CC1)C(=O)NCN2c1ccccc1 [Compound 161] fall in the same range of IC50: 5 to 25 µM for the first, 5 to 25 µM for the second.

CC1CC(n2c(=O)[nH]c3ccc(F)c(F)c32)CCN1C(=O)c1cc(-c2cccnc2)n(-c2ccc(F)c(C(F)(F)F)c2)n1 (stereo not drawn) [Compound 293] and O=C(c1cc(-c2cccnc2)n(-c2ccc(Cl)c(C(F)(F)F)c2)n1)N1CCC(n2c(=O)[nH]c3ccc(F)c(F)c32)CC1 [Compound 295] fall in the same range of IC50: 0.001 to 5 µM for the first, 0.001 to 5 µM for the second.

O=C(c1cc(-c2cccnc2)n(-c2cc(F)c(F)c(F)c2)n1)N1CCC2(CC1)C(=O)NCN2c1ccc(F)cc1 [Compound 253] and O=C(c1cc(-c2cccnc2)n(-c2cc(F)c(F)c(F)c2)n1)N1CCC2(CC1)C(=O)NCN2c1ccc(Br)cc1 [Compound 201] fall in the same range of IC50: 0.001 to 5 µM for the first, 0.001 to 5 µM for the second.

O=C1OC2(CCN(C(=O)c3cc(-c4ccncc4)n(-c4ccc(F)c(F)c4)n3)CC2)c2ccccc21 [Compound 80] and O=C(c1cc(-c2ccncc2)n(-c2ccc(C(F)(F)F)nc2)n1)N1CCC2(CC1)OCc1ccccc12 [Compound 122] cannot be ordered by IC50: over 25 µM for the first, over 25 µM for the second.

First: Cc1ccc(-c2cc(C(=O)N3CCC4(CC3)C(=O)NCN4c3ccc(F)cc3)nn2-c2ccc(C(F)(F)F)c(F)c2)cn1 [Compound 262]
Second: O=C(c1cc(-c2ccnnc2)n(-c2ccc(C(F)(F)F)c(F)c2)n1)N1CCC2(CC1)C(=O)NCN2c1ccc(F)cc1 [Compound 320, 8-(1-(3-fluoro-4-(trifluoromethyl)phenyl)-5-(pyridazin-4-yl)-1H-pyrazole-3-carbonyl)-1-(4-fluorophenyl)-1,3,8-triazaspiro [4.5]decan-4-one]
The IC50 of the first is higher: 5 to 25 µM for the first, 0.001 to 5 µM for the second. The second is the more potent here.

Compared with O=C(c1cc(-c2ccncc2)n(-c2cc(C(F)(F)F)cc(C(F)(F)F)c2)n1)N1CCC(n2c(=O)[nH]c3ccccc32)CC1 [Compound 159], O=C(c1cc(-c2ccncc2)n(-c2ccc(F)cc2F)n1)N1CCC(n2c(=O)[nH]c3ccccc32)CC1 [Compound 153] is higher in IC50: 5 to 25 µM for the first, over 25 µM for the second. The first is the more potent here.

O=C(c1cc(-c2ccncc2)n(-c2ccc(C(F)(F)F)cc2)n1)N1CCC(N2C(=O)OC[C@H]2c2ccccc2)CC1 [Compound 62] and O=C(c1cc(-c2ccncc2)n(-c2ccc(C(F)(F)F)nc2)n1)N1CCC(N2C(=O)OC[C@H]2c2ccccc2)CC1 [Compound 127] cannot be ordered by IC50: over 25 µM for the first, over 25 µM for the second.

O=C(c1cc(-c2ccncc2)n(-c2ccc(C(F)(F)F)nc2)n1)N1CCC2(CC1)C(=O)NCN2c1ccc(Cl)cc1 [Compound 121] and O=C(c1cc(-c2ccncc2)n(-c2ccc(C(F)(F)F)c(F)c2)n1)N1CCC2(CC1)C(=O)NCN2c1ccc(OC(F)(F)F)cc1 [Compound 179] cannot be ordered by IC50: over 25 µM for the first, over 25 µM for the second.

First: O=C(Nc1ccc2c(c1)OC(F)(F)O2)c1cc(-c2ccncc2)n(-c2cnccn2)n1 [Compound 130]
Second: Cn1c(=O)c(=O)n(C)c2cc(NC(=O)c3cc(-c4ccncc4)n(-c4cnccn4)n3)ccc21 [Compound 133]
The IC50 of the first is lower: 5 to 25 µM for the first, over 25 µM for the second.

Cc1cc(-n2nc(C(=O)N3CCC(n4c(=O)[nH]c5ccc(F)c(F)c54)CC3)cc2-c2cccnc2)cc(C(F)(F)F)c1F [Compound 286] and O=C(c1cc(-c2cncc(F)c2)n(-c2ccc(C(F)(F)F)c(F)c2)n1)N1CCC(n2c(=O)[nH]c3ccc(F)c(F)c32)CC1 [Compound 319] fall in the same range of IC50: 0.001 to 5 µM for the first, 0.001 to 5 µM for the second.

First: CN1C(=O)COc2cc(NC(=O)c3cc(-c4ccncc4)n(-c4ccc(C(F)(F)F)cc4)n3)ccc21 [Compound 67]
Second: O=C(Nc1ccc2c(c1)COC2=O)c1cc(-c2ccncc2)n(-c2ccc(C(F)(F)F)cc2)n1 [Compound 70]
The IC50 of the first is higher: over 25 µM for the first, 5 to 25 µM for the second. The second is the more potent here.

O=C(c1nn(-c2cc(F)c(F)c(F)c2)c(-c2cccnc2)c1Br)N1CCC(n2c(=O)[nH]c3ccc(F)c(F)c32)CC1 [Compound 211] and N#Cc1c(F)ccc2[nH]c(=O)n(C3CCN(C(=O)c4cc(-c5cccnc5)n(-c5cc(F)c(F)c(F)c5)n4)CC3)c12 [Compound 233] fall in the same range of IC50: 0.001 to 5 µM for the first, 0.001 to 5 µM for the second.

First: O=C(c1cc(-c2ccncc2)n(-c2cnccn2)n1)N1CCC2(CC1)NCN(c1ccccc1)C2=O [Compound 137]
Second: O=C(c1cc(-c2ccncc2)n(-c2cnccn2)n1)N1CCC2(CC1)C(=O)NCN2c1ccccc1 [Compound 167]
The IC50 of the first is higher: over 25 µM for the first, 5 to 25 µM for the second. The second is the more potent here.

N#Cc1ccc2[nH]c(=O)n(C3CCN(C(=O)c4cc(-c5cccnc5)n(-c5ccc(C(F)(F)F)c(F)c5)n4)CC3)c2c1 [Compound 190] and N#Cc1cc2[nH]c(=O)n(C3CCN(C(=O)c4cc(-c5cccnc5)n(-c5ccc(C(F)(F)F)c(F)c5)n4)CC3)c2cc1F [Compound 234] fall in the same range of IC50: 0.001 to 5 µM for the first, 0.001 to 5 µM for the second.

O=C(c1cc(-c2cccnc2)n(-c2ccc(C(F)(F)F)c(F)c2)n1)N1CCC2(CC1)C(=O)NCN2c1cc(F)c(F)c(F)c1 [Compound 186] and O=C(c1cc(-c2cccnc2)n(-c2ccc(C(F)(F)F)c(F)c2)n1)N1CCC(n2c(=S)[nH]c3ccc(F)c(F)c32)CC1 [Compound 182] fall in the same range of IC50: 0.001 to 5 µM for the first, 0.001 to 5 µM for the second.

O=C(c1nn(-c2ccc(F)c(C(F)(F)F)c2)c2c1CCc1ncccc1-2)N1CCC(n2c(=O)[nH]c3ccc(F)c(F)c32)CC1 [Compound 314] and O=C(c1nn(-c2ccc(F)c(C(F)(F)F)c2)c2c1CCc1cccnc1-2)N1CCC(n2c(=O)[nH]c3ccc(F)c(F)c32)CC1 [Compound 316] fall in the same range of IC50: 0.001 to 5 µM for the first, 0.001 to 5 µM for the second.

O=C(c1cc(-c2ccnnc2)n(-c2cc(F)c(F)c(F)c2)n1)N1CCC(n2c(=O)[nH]c3ccc(F)c(F)c32)CC1 [Compound 321] and O=C(c1cc(-c2cnccn2)n(-c2ccc(F)c(C(F)(F)F)c2)n1)N1CCC(n2c(=O)[nH]c3ccc(F)c(F)c32)CC1 [Compound 305] fall in the same range of IC50: 0.001 to 5 µM for the first, 0.001 to 5 µM for the second.

First: O=C(c1cc(-c2ccncc2)n(-c2ccc3c(c2)OCO3)n1)N1CCC(n2c(=O)[nH]c3ccccc32)CC1 [Compound 156]
Second: O=C(c1cc(-c2ccncc2)n(-c2ccc(C(F)(F)F)cc2)n1)N1CCC(n2c(=O)[nH]c3ccc(F)c(F)c32)CC1 [Compound 177]
The IC50 of the first is higher: over 25 µM for the first, 0.001 to 5 µM for the second. The second is the more potent here.

O=C1CSC2(CCN(C(=O)c3cc(-c4ccncc4)n(-c4ccc(C(F)(F)F)cc4)n3)CC2)N1 [Compound 68] and CN1C(=O)NC2(CCN(C(=O)c3cc(-c4ccncc4)n(-c4ccc(C(F)(F)F)cc4)n3)CC2)C1=O [Compound 75] cannot be ordered by IC50: over 25 µM for the first, over 25 µM for the second.

O=C(Nc1ccc2c(c1)COC2=O)c1cc(-c2ccncc2)n(-c2ccc(F)c(F)c2)n1 [Compound 92] and Cn1c(=O)oc2ccc(NC(=O)c3cc(-c4ccncc4)n(-c4ccccc4)n3)cc21 [Compound 39] cannot be ordered by IC50: over 25 µM for the first, over 25 µM for the second.

First: O=C(c1cc(-c2ccncc2)n(-c2ccc(C(F)(F)F)cc2)n1)N1CCN2C(=O)OC[C@@H]2C1 [Compound 72]
Second: O=C1NC(=O)C2(CCN(C(=O)c3cc(-c4ccncc4)n(-c4ccccc4)n3)CC2)N1 [Compound 30]
The IC50 of the first is lower: 5 to 25 µM for the first, over 25 µM for the second.

For O=C(c1cc(-c2ccncc2)n(-c2ccc(F)c(F)c2)n1)N1CCC2(CC1)SCCS2 [Compound 85], the IC50 was over 25 µM.
